Where “and” joins values, the source holds several entries; their conditions need not be identical. Identical values can stand only once.
Key:
human 11β-HSD1 = molecular target: T1, human 11β-HSD1 (Homo sapiens, UniProt P28845); assay: 11β-HSD1-dependent metabolism of 7-oxygenated 27OHCs in intact HEK-293 cells expressing 11β-HSD1 and H6PDH; type: cell-based; details: for Metabolism by 11β-HSD1 in intact cells (in words): 1 μM substrate, 60 min
T1 construct: expressed in transfected cells
Experimental: Fifty thousand stably transfected HEK-293 cells expressing either 11β-HSD2 [clone AT8 ([34])] or 11β-HSD1 and hexose-6-phosphate dehydrogenase (H6PDH) [clone HHH7 ([35])] were seeded in poly-L-lysine-coated 96-well plates and incubated for 24 h. H6PDH provides the cofactor NADPH and is required for an efficient oxoreduction reaction by 11β-HSD1 ([36]). The medium was changed to steroid- and phenol red-free DMEM (DMEM SF) for another 2 h and the cells were then treated with 1 μM of 7k27OHC in the presence or absence of 1 μM of T0504 (to inhibit 11β-HSD1) or 0.5 μM of 7β27OHC or 7α27OHC in the presence or absence of 5 μM of glycyrrhetinic acid (GA) (to inhibit 11β-HSD2). Metabolic conversion was determined after 0.5 h for 11β-HSD2 and after 1 h for 11β-HSD1.
Ice-cold acetonitrile:isopropanol (7:3, v/v) mixture containing either 100 nM deuterium-labeled 7β27OHC or corticosterone as internal standards were used to extract oxysterols from cell culture supernatants. Additionally, 1.5% (v/v) of a standard solution of the antioxidant butylated hydroxytoluene (BHT) and the peroxide reducing agent triphenylphosphine (TPP) (10 mg BHT and 25 mg TPP in 10 ml ethanol) was added ([37]). In experiments with SW-620 cells, oxysterols were extracted from cell supernatants and cells. The samples were incubated for 30 min at 4°C and 700 rotations per minute, centrifuged (16,000 g, 10 min, 4°C), and the supernatant evaporated to dryness under nitrogen to minimize oxidation from atmospheric oxygen. After reconstitution in 50 μl of methanol:ultra-pure water (1:1, v/v), the samples were again centrifuged (16,000 g, 10 min, 4°C) and the supernatants analyzed. Data (mean ± SD) were obtained from three independent experiments.
An Agilent 1290 Infinity UHPLC binary solvent delivery system including a temperature controlled autosampler and a column oven coupled to an Agilent 6490 triple quadrupole mass spectrometer with a jet stream electrospray ionization interface (AJS-ESI) (Agilent Technologies) was used to analyze oxysterols. A reversed-phase column (ACQUITY UPLC BEH C18, 1.7 μm, 2.1 × 150 mm; Waters, Wexford, Ireland) heated to 65 ± 0.8°C was applied for analyte separation. The flow-rate was 0.5 ml with solvent A [water/acetonitrile/formic acid (95/5/0.1, v/v/v)] and solvent B [water/acetonitrile/formic acid (5/95/0.1, v/v/v)]. The eluent gradient was set as follows: 0–4.5 min 45–97% B, 4.5–7 min 80% B (washout), and 7–9 min 45% B (column re-equilibration). Methanol/water (75/25, v/v) was used as needle and needle-seat flushing solvent for 10 s after sample aspiration. The samples were stored in the autosampler at 4°C until analysis. […]

mouse 11β-hsd1 = molecular target: T2, mouse 11β-hsd1 (Mus musculus, UniProt P50172); assay: Inhibition of murine 11β-hsd1-dependent oxoreduction of cortisone in HEK-293 cell lysates; type: biochemical; details: for IC50: mouse ortholog, 200 nM cortisone, 10 min, 37°C, read-out: IC50, mouse 11β-hsd1-dependent conversion of cortisone to cortisol
T2 construct: expressed in transfected cells; host or cells: HEK-293
Experimental: 11β-HSD1 and 11β-HSD2 enzyme activities were assessed in lysates of HEK-293 cells stably expressing the respective enzyme as reported earlier ([40]). Briefly, 11β-HSD1-dependent oxoreductase activity was determined by the incubation of lysates with 200 nM of radiolabeled cortisone, 500 μM of NADPH, and the test substance or vehicle for 10 min at 37°C. 11β-HSD2-dependent oxidation of cortisol was measured instead by the addition of 50 nM of radiolabeled cortisol and 500 μM of NAD^+. The enzymatic reaction was stopped by introducing an excess amount of unlabeled cortisone and cortisol (1:1, 2 mM unlabeled each, in methanol). Cortisone and cortisol were separated using TLC and a chloroform and methanol (9:1, v/v) mixture. The bands were detected under UV light, scraped off the plate, and metabolism of the radiolabeled substrate was then evaluated by scintillation counting and the substrate conversion determined and compared with the control sample. Data (mean ± SD) were normalized to the control (DMSO) sample and obtained from at least three independent experiments.

T1 sequence (P28845 whole entry): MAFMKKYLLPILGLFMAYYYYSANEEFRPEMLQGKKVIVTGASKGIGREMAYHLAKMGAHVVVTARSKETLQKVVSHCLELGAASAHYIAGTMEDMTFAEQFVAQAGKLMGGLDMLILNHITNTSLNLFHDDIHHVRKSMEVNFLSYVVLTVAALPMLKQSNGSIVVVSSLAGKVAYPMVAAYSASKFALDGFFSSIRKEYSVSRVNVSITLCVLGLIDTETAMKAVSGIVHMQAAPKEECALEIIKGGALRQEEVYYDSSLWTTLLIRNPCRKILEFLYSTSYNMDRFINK
T2 sequence (P50172 whole entry): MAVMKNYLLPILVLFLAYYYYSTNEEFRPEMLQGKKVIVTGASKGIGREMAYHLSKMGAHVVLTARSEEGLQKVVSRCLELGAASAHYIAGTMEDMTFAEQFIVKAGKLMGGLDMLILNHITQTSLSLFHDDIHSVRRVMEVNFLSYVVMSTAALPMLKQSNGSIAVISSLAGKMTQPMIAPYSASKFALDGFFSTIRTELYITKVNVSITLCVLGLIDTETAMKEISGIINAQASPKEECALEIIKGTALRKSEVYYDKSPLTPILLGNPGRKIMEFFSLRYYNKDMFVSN

SMILES	Metabolism by 11β-HSD1 in intact cells (in words) (human 11β-HSD1)	Vapp cell intact (human 11β-HSD1; intact HEK-293 cells, substrate concentration 1 μM)	IC50 (mouse 11β-hsd1) [µM]	Rest enzyme activity of mouse 11β-hsd1 (mouse 11β-hsd1; 1 μM test substance, data not shown) [%]
CC(CO)CCC[C@@H](C)[C@H]1CC[C@H]2[C@@H]3C(=O)C=C4C[C@@H](O)CC[C@]4(C)[C@H]3CC[C@]12C (stereo partly shown) [7k27OHC, 7-keto,27-hydroxycholesterol]	stereo-specifically converted to 7β27OHC	0.52 ± 0.10 nmol·h^−1·mg total protein^−1 and 0.52 ± 0.10^a nmol·h^−1·mg total protein^−1	0.036 ± 0.002	–
C[C@@H](CO)CCC[C@@H](C)[C@H]1CC[C@H]2[C@@H]3[C@H](O)C=C4C[C@@H](O)CC[C@]4(C)[C@H]3CC[C@]12C [7α27OHC]	neither 7α27OHC nor 7β27OHC was oxidized	–	–	~30
CC(CO)CCC[C@@H](C)[C@H]1CC[C@H]2[C@@H]3[C@@H](O)C=C4C[C@@H](O)CC[C@]4(C)[C@H]3CC[C@]12C (stereo partly drawn) [7β27OHC, 7β,27-dihydroxycholesterol]	neither 7α27OHC nor 7β27OHC was oxidized	–	0.066 ± 0.011	–

Source: paper PMC6718442, “11β-Hydroxysteroid dehydrogenases control access of 7β,27-dihydroxycholesterol to retinoid-related orphan receptor γ” (Journal of Lipid Research, 2019)
